Measurements taken from paper PMC11845649, “Unravelling physical and radiobiological effects of proton boron fusion reaction with anionic metallacarboranes ([o-COSAN]^-) in breast cancer cells” (EJNMMI Research, 2025).
One block for each substance: values may come before it.

Columns and labels:
MDA-MB-231 cells [1] = assay: Clonogenic cell survival after proton irradiation (PBFR, 675 keV); assay type: cell-based; details: for surviving fraction vs control irradiated cells: 24 h incubation, 8 Gy protons, p < 0.05
Procedure: (§1) Proton irradiation was performed in air using the external microbeam facility at the Van de Graaff accelerator of the CTN/IST. Briefly, a focused 2.0 MeV proton beam of ∼70 × 70 µm^2 was used and rastered scanned over a cell monolayer placed in a cell plate, positioned prependicular to the proton beam path. The raster scan duration and the irradiation time of 10 s ensured irradiation homogeneity. The maximum achievable scan area is in the range of 0.08–0.13 cm^2 (corresponding to 40% of the total area of one well, 0.32 cm^2, in a 96-well plate). A proton beam current in the pA range was used, corresponding to a proton intensity of 2–6 × 10^6 protons/s. Prior to irradiation, part of the culture medium was removed, as described elsewhere. The proton beam energy was tuned to 675 keV (main resonance energy of the proton-boron nuclear reaction) within the cell layer by controlling the air path length and using Mylar^R foils as attenuators. The details of the irradiation geometry are described above and illustrated in Fig. 2.
MDA-MB-231 cells were seeded in each well of a 6 well plate and incubated for 24 h. Cells were incubated with 50 and 100 µM of Na[o-COSAN], for 24 h at 37 °C, and then irradiated with protons, as described in 2.3.1. After irradiation, fresh medium was added and cells were incubated for 7 days in the same conditions. After 7 days of incubation, the medium was aspirated and cells were fixed and stained with Giemsa’s azur eosin methylene blue solution diluted 5% v/v in buffer solution. Finally, colonies were manually counted. Moreover, a CellProfiler pipeline was used to check the size of the different colonies observed in order to assess whether proton irradiation interfered with the capacity of replication of MDA-MB-231 cells.
The efficiency of [o-COSAN]^- was evaluated after irradiation with 8 Gy of protons in MDA-MB-231 cells. The irradiation with protons was carried out assuming that the proton-boron nuclear reaction resonance energy of 675 keV was reached within the cell monolayer.

[2] = system: MDA-MB-231 breast cancer cells; assay: MTT cell viability / cytotoxic activity; assay type: cell-based; details: MDA-MB-231, MTT, mean ± SD of two independent experiments
Procedure: MDA-MB-231 breast cancer cells were purchased from American Type Culture Collection (ATCC, HTB-26). Cells were cultured in DMEM medium supplemented with 10% fetal bovine serum (FBS) and incubated at 37 °C in a humidified 5% CO2 atmosphere. Na[o-COSAN] stock solutions at 1 mM were prepared in DMEM medium without supplements and kept at -20 °C. Cell viability was assessed using the MTT assay following a method similar to the one previously described. Briefly, MDA-MB-231 cells (0.8 − 5 × 10^4 cells/well) were seeded in 96-well plates and left to adhere. After 24 h, cells were incubated with increasing concentrations of Na[o-COSAN] from 1 µM to 1000 µM for 6 and 24 h. After incubation, the medium was removed, and each well was incubated with an MTT solution (0.5 mg/mL in medium) for 3 h at 37 °C. Then, the medium was discarded, and the formazan crystals were solubilized in 200 µL DMSO. Absorbance was measured at 570 nm using an Varioskan TM LUX microplate reader (Thermo Scientific, Waltham, MA, USA). The dose-response curve fit of the absorbance as a function of log10[concentration] was performed using GraphPad Prism software (version 9.5.1) to assess viability and IC50 (concentration at which half the cell population is expected to die) at 6 and 24 h. […]

MDA-MB-231 cells [3] = assay: Cellular uptake by nuclear microscopy (STIM, PIXE, EBS), Co as signature; assay type: cell-based
Procedure: MDA-MB-231 cells (10^4-10^5 cells) were seeded on 100 nm thick silicon nitride (Si3N4) membranes (Silson Ltd., UK), allowed to adhere, and incubated for 24 h in medium containing Na[o-COSAN] at 50 µM. The culture medium was removed and the monolayer of cells on the membranes was washed with cold PBS, immediately frozen at -80 °C, transferred to a cryostat at -25 °C and allowed to dry overnight for subsequent analysis of [o-COSAN]^− uptake. […] Briefly, a 2.0 MeV focused proton beam of 3 × 4 µm^2 was raster scanned across the target cell on the silicon nitride window, simultaneously delivering images of density by STIM (Scanning Transmission Ion Microscopy), elemental distributions by PIXE (Particle Induced X-ray Emission) and matrix constituents by EBS (Elastic Backscattering Spectroscopy). Spectra recorded and/or extracted from maps in selected regions of the cell allowed Co concentrations to be determined in major cell compartments, such as the cytoplasm and nucleus. At least three cells treated with Na[o-COSAN] at a concentration of 50 µM were analyzed, and Co concentrations were measured using a minimum of five spectra acquired from both the nucleus and cytoplasm regions. The average concentrations for each of these regions were calculated based on the individual spectra. Data acquisition, spectra processing and concentration calculation were performed using the OMDAQ-3 program (Oxford Microbeams Ltd., UK) (http://www.microbeams.co.uk/ Accessed 12-6-2024). Elemental concentrations are expressed as µg/g dry weight.
The uptake of [o-COSAN]^− in single MDA-MB-231 cells was analysed using a combination of nuclear microscopy techniques: STIM, PIXE, and EBS. These techniques allow correlative imaging and quantification of elemental distributions. […] These morphological details were essential for correlating with the elemental distributions obtained from PIXE and assessing localization. […] Therefore, considering the stoichiometry of the carborane cluster [C2B9H11]^−2.in the [o-COSAN]^− molecule, the boron-11 (^11B) content can be estimated. […] This is important information provided by nuclear microscopy. It will be needed for future advanced dosimetry studies, including PBFR.

[4] = system: MDA-MB-231 tumor-bearing mice; assay: Biodistribution, boron by ICP-OES in MDA-MB-231 xenograft model; assay type: in vivo, mice (Balb/cSlc-nu/nu); details: 7.5 mgB/kg intravenously
Procedure: MDA-MB-231 tumor-bearing mice (Balb/cSlc-nu/nu, female, 5–6 weeks old, 14–20 g, Sankyo Labo Service Co., Ltd., Japan) were prepared by injecting subcutaneously (s.c.) a suspension of MDA-MB-231 cells (8.0 × 10^5 cells/mouse) directly into the right thigh. The mice were kept on a regular chow diet and water and maintained under 12 h light/dark cycle in an ambient atmosphere. When the tumor diameter became 5 to 7 mm, the mice were injected via the tail vein with a 200 µL PBS solution of Na[o-COSAN] (7.5 mgB/kg). At 1 h after injection, the mice were lightly anesthetized, and blood samples were collected by cardiac puncture. The mice were then sacrificed by cervical dislocation and dissected. Heart, liver, lung, kidney, spleen, muscle, brain and tumor were excised, washed with 0.9% NaCl solution, and weighed. The excised organs were digested with 1 mL of HNO3 at 90 °C for 1 h, and then the digested samples were diluted with distilled water. After filtering through a hydrophobic filter, boron concentration was measured by an inductively coupled plasma optical emission spectroscopy (ICP-OES, iCAP 7400 Duo, Thermo Fisher Scientific Inc., USA). All animal experiments were conducted in accordance with the Guide for the Care and Use of Laboratory Animals approved by the Animal Use Review Board and Ethical Committee of Tokyo Institute of Technology (Permission number: D2021007).
The biodistribution studies provide important preclinical information regarding the identity of the potential target organs and tissues. Na[o-COSAN] (7.5 mgB/kg) was administrated intravenously to MDA-MB-231 breast cancer xenograft model mice, and boron uptake in the target organs was evaluated at 1 and 4 h post-injection.

[5] = parameters: method as in doi:10.1021/cr00010a005, PMID 34944987, PMID 34576098; details: cited from earlier work
MDA-MB-231 cells [6] = assay: γ-H2AX foci quantification after proton irradiation; assay type: cell-based
Procedure: as §1
MDA-MB-231 cells were seeded at a density of 10,000 cells per well in an eight-well chamber slide and allowed to attach overnight. Cells were incubated with 50 and 100 µM of Na[o-COSAN], for 24 h at 37 °C, and then irradiated with protons, as described in 2.4. MDA-MB-231 cells were washed three times with PBS and fixed with 4% formaldehyde in PBS for 15 min. After washing with PBS, cells were permeabilized with Triton X-100 (0.5%) at room temperature for 5 min followed by two washing steps with 1% BSA in PBS. Then, cells were incubated with an anti-γ-H2AX primary antibody (mouse anti-γ-H2AX (ser139), Stressgen) at 2 µg/mL for 1 h. […] Cells were analyzed at under ×64 magnification. Several high-quality 2D images were randomly collected in each slide and analyzed using a modified Speckle Count pipeline from the freeware CellProfiler. At least 200 nuclei were analyzed per experiment per dose. […]
The efficiency of [o-COSAN]^- was evaluated after irradiation with 8 Gy of protons in MDA-MB-231 cells. […]

U87 glioblastoma cells = system: U87 glioblastoma cells; parameters: method as in PMID 36373493; details: protons at 675 keV, dose 9 Gy; cited from earlier work

- tumor boron uptake ([4]; 1 and 4 h post-injection): high and maintained after 4 h
- boron accumulation in liver and lungs ([4]; 1 h post-injection): significant accumulation of boron
- boron accumulation in kidney and spleen ([4]; 1 h post-injection, relative to liver and lungs): less
- boron in target organs after 4 h ([4]; 4 h post-injection): considerable clearance of boron
- γ-H2AX foci induction without irradiation (MDA-MB-231 cells [6]; non-irradiated cells): does not induce new γ-H2AX foci
Substance: sodium salt of cobaltabisdicarbollide [Na[o-COSAN]]
- surviving fraction vs control irradiated cells (MDA-MB-231 cells [1]; 50 µM): significant decrease
- surviving fraction vs control irradiated cells (MDA-MB-231 cells [1]; 100 µM): significant decrease
- decrease of average colony size vs cells irradiated with protons in the absence of compound (MDA-MB-231 cells [1]; 100 µM, irradiated 8 Gy protons, p < 0.001): 40%
- decrease of average colony size vs non-irradiated counterparts (MDA-MB-231 cells [1]; 100 µM, irradiated 8 Gy protons, p < 0.01): 30%
- effect on surviving fraction of treated non-irradiated cells (MDA-MB-231 cells [1]; non-irradiated, vs control conditions): minor cytostatic effects
- IC50 ([2]; 6 h incubation): 245 ± 94 µM
- IC50 ([2]; 24 h incubation): 137 µM
- Co concentration, nucleus compared to cytoplasm (MDA-MB-231 cells [3]; 24 h, 50 µM, Fig. 3C): significantly higher concentrations of Co in the nucleus compared to the cytoplasm
- 11B content in the nucleus (MDA-MB-231 cells [3]; estimated from Co concentration and cluster stoichiometry, 24 h, 50 µM): 425 µg/g
- 11B atoms in the nuclear volume of a single cell (MDA-MB-231 cells [3]; estimated from Co concentration, 24 h, 50 µM): approximately 2.3 × 10^9 atoms
- average Co concentration in the nucleus (MDA-MB-231 cells [3]; single MDA-MB-231 cells, 24 h incubation with 50 µM, PIXE, dry weight): 153 µg/g
- stability [5]: remarkably stable
- water solubility [5]: water-soluble
- increase in average number of γ-H2AX foci (MDA-MB-231 cells [6]; irradiated cells (8 Gy protons) incubated with 50 µM): 55%
- increase in average number of γ-H2AX foci (MDA-MB-231 cells [6]; irradiated cells (8 Gy protons) incubated with 100 µM): 27%

Substance: ferrabis(dicarbollide) [Na[o-FESAN]]
- cell viability and survival after proton irradiation (U87 glioblastoma cells): significant loss of cell viability and survival
